In paper PMC10180054, “Design, Synthesis and Biological Evaluation of Novel Pleuromutilin Derivatives Containing 6-Chloro-1-R-1H-pyrazolo[3,4-d]pyrimidine-4-amino Side Chain” (Molecules, 2023):

Legend:
RAW 264.7 cells = assay: Cytotoxicity MTT assay; type: cell-based, mouse; conditions: 16 h
Experimental: The presence of compounds can influence cellular basic physiological processes, suppress proliferation and even reduce cell survival, etc. In the community, MRSA generally causes respiratory infection. Therefore, cytotoxicity was evaluated to explore the effect of compounds 12c and 22c on the viability of the respiratory tract cells 16-HBE (human bronchial epithelial cell line). RAW 264.7 (mouse peritoneal macrophage cell line) and Caco-2 (human epithelial colorectal adenocarcinoma cell line) were also used to evaluate the cytotoxicity of compounds 12c and 22c by MTT assay.
Cytotoxicity of the test compounds was assessed using the conventional MTT method. RAW 264.7 murine macrophage cells, Caco-2 cells and 16-HBE were used in this experiment. The cells were seeded into 96-well plates at a density of 1.0 × 10^5 cells per well. After 4 h at 37 °C, the cells were treated with compounds 12c and 22c at various concentrations and incubated at 37 °C for 16 h. Next, MTT (0.5 mg/mL in PBS, 100 μL/well) was added sequentially to each well in a humidified atmosphere of 95% air and 5% CO2 incubator and the incubation continued for an additional four hours. […] At the end of this period, the absorbance was measured at 490 nm by a microplate spectrophotometer (BIO-TEK Instruments, Winooski, VT, USA).

MRSA ATCC 43300 = assay: Neutropenic murine thigh infection model; type: in vivo; conditions: neutropenic mice, 20 mg/kg, 24 h after dosing, n = 6/group
Experimental: Therefore, the in vivo efficacy of compounds 12c and 22c were assessed using the murine neutropenic thigh infection model. Mice groups treated with saline and tiamulin were chosen as the negative and positive controls.
Model experiments of neutropenic mouse thigh infection were manipulated as described in the literature. Female, six-week-old, specific-pathogen-free mice weighing approximately 23~26 g were used throughout the study. Mice were rendered neutropenic by injection of cyclophosphamide (Mead Johnson Pharmaceuticals, Evansville, IN) on day 4 (150 mg/kg) and day 1 (100 mg/kg) before the experiment. The neutrophil numbers in mice blood should be <0.1 × 10^9/L [34]. In total, 0.1 mL of MH broth of MRSA (10^7 CFU/mL) was inoculated into each thigh of the neutropenic mice. Mice were divided into 4 groups (6 mice per group), including control (sterile saline), compounds 12c, 22c and tiamulin groups. After 3 h post-infection, the corresponding drugs were injected into each mouse’s thigh. Mice were euthanized following intravenous injection for 24 h. Thigh tissue of each mouse was removed, collected, weighed and homogenized in 3 mL of ice sterile saline. Six ten-fold serial dilutions were performed and 25 μL of the bacterial solution from each tube was plated on MH agar plates. The resulting colonies were counted after 24 h incubation at 37 °C. The protocol for this study was reviewed and approved by the Institutional Animal Care and Use Committee of the South China Agricultural University.

`C=C[C@]1(C)C[C@@H](OC(=O)CSc2ccc(Nc3nc(Cl)nc4c3cnn4-c3ccc(F)c(F)c3)cc2)[C@]2(C)[C@H](C)CC[C@]3(CCC(=O)[C@H]32)[C@@H](C)[C@@H]1O` [Compound 22c, 22-[4-(6-Chloro-1-(3,4-difluorophenyl)-1H-pyrazolo[3,4-d]pyrimidine-4-yl)amino-Phenylsulfanyl]-22-deoxypleuromutilin] was tested, and the “effect on viability of RAW 264.7 cells” value (RAW 264.7 cells; 8 µg/mL) was “slight inhibition”, the “effect on viability of RAW 264.7 cells” value (RAW 264.7 cells; ≤8 μg/mL) was “no significant inhibition” and the “reduction of MRSA load in thigh vs growth control” value (MRSA ATCC 43300) was −0.93 log10 CFU/mL.
